Experimental data published in patent US9340590B2 (priority 2011, dated 2016).
Where two headings read alike, the source gives them in different places. Positions of bridges follow the written chain, without caps; N, C: chain ends. Residues, ends and D or L forms follow the SMILES beside them.

Molecular target: hNav1.3 (Homo sapiens, UniProt Q9NY46)
Experiment: cell-based
Conditions: for IC50: IonWorks Quattro, read-out: IWQ Use Nav1.3
[1] = use-dependent protocol, hNav1.3

hNav1.3, sequence (Q9NY46 whole entry, looked up): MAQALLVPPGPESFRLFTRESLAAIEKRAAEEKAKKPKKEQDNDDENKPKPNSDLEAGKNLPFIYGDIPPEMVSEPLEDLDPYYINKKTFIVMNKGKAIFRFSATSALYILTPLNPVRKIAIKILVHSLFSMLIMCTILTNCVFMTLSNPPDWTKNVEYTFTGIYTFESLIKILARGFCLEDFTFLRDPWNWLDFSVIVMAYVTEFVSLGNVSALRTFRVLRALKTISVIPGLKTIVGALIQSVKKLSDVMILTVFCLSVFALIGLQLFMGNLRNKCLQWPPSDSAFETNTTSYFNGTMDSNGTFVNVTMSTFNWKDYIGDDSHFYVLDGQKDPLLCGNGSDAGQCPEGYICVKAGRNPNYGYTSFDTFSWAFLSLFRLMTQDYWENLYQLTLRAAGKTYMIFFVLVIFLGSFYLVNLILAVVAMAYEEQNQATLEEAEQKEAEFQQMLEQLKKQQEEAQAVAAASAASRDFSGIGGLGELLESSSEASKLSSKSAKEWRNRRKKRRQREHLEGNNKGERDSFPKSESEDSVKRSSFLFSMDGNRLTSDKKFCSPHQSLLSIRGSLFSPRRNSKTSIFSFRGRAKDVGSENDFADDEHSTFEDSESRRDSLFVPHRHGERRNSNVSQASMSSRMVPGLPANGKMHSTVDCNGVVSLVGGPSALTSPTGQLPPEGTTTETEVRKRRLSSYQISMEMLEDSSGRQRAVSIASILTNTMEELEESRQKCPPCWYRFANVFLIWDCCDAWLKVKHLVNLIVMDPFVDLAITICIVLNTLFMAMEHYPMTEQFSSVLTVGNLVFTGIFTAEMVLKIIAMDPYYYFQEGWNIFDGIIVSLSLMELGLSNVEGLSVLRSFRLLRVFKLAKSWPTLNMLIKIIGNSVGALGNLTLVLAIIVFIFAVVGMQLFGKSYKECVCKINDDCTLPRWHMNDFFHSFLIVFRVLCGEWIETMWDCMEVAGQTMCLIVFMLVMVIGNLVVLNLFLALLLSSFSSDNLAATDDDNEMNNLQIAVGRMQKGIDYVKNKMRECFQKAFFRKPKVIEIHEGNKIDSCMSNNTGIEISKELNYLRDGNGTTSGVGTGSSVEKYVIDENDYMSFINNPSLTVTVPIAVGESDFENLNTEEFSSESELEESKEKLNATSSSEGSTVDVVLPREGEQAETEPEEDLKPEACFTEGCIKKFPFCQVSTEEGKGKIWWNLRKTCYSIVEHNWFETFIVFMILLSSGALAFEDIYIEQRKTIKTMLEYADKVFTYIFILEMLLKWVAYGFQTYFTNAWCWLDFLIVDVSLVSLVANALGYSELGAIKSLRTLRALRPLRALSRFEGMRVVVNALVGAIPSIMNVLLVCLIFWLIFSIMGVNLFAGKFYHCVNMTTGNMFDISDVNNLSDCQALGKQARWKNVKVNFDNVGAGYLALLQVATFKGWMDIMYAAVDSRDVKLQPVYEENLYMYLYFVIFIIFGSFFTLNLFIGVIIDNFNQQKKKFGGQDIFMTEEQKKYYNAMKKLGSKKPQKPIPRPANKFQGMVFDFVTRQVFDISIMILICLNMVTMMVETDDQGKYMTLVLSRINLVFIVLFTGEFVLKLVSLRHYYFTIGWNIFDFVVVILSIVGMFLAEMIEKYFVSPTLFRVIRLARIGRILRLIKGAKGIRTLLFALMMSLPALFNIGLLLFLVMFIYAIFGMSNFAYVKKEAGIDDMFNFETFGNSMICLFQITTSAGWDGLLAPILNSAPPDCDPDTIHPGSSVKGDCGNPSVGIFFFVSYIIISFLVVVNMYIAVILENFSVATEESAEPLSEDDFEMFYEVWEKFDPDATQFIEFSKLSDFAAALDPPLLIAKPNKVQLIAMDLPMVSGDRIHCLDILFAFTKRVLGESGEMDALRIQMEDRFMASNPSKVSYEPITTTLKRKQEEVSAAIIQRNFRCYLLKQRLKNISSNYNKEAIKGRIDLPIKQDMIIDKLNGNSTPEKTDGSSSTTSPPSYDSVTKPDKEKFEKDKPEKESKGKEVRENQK

## CC[C@H](C)[C@@H]1NC(=O)[C@@H]2CSSC[C@@H]3NC(=O)[C@H](C(C)C)NC(=O)[C@H](CC(C)C)NC(=O)[C@H](CC(N)=O)NC(=O)[C@@H]4CCCN4C(=O)[C@H](CCCNC(=N)N)NC(=O)[C@H](CSSC[C@H](NC(=O)[C@@H](N)CC(=O)O)C(=O)N[C@@H](CC(C)C)C(=O)NCC(=O)N[C@@H](Cc4ccccc4)C(=O)N[C@@H](CCSC)C(=O)N[C@@H](CCCNC(=N)N)C(=O)N[C@@H](CCCCN)C(=O)N2)NC(=O)[C@H](CSSC[C@@H](C(=O)N[C@@H](CCCCN)C(=O)N[C@@H](Cc2ccc(O)cc2)C(=O)N[C@H](C(=O)N[C@@H](Cc2ccccc2)C(N)=O)C(C)C)NC(=O)[C@H](Cc2c[nH]c4ccccc24)NC(=O)[C@H](CC(=O)O)NC(=O)[C@H](Cc2cnc[nH]2)NC(=O)[C@H]([C@@H](C)O)NC(=O)[C@H](CCCNC(=N)N)NC(=O)[C@H](CO)NC3=O)NC(=O)[C@H](CCCCN)NC(=O)[C@H](CC(=O)O)NC(=O)[C@H](CC(N)=O)NC(=O)[C@H](CC(=O)O)NC(=O)[C@@H]2CCCN2C1=O [SEQ ID NO: 750, [Asp28]GpTx-1] (H-DCLGFMRKCIPDNDKCCRPNLVCSRTHDWCKYVF-NH2; disulfide 2-17, 9-23, 16-30)
use-dependent block, hNav1.3
  IC50: 770 nM

## CSCC[C@@H]1NC(=O)[C@H](Cc2ccccc2)NC(=O)CNC(=O)[C@H](CC(C)C)NC(=O)[C@@H](NC(=O)[C@@H](N)CC(=O)O)CSSC[C@@H]2NC(=O)[C@@H]3CSSC[C@@H](C(=O)N[C@@H](CCCCN)C(=O)N[C@@H](Cc4ccc(O)cc4)C(=O)N[C@H](C(=O)N[C@@H](Cc4ccccc4)C(N)=O)C(C)C)NC(=O)[C@H](Cc4c[nH]c5ccccc45)NC(=O)[C@H](CCCCN)NC(=O)[C@H](Cc4cnc[nH]4)NC(=O)[C@H]([C@@H](C)O)NC(=O)[C@H](CCCNC(=N)N)NC(=O)[C@H](CO)NC(=O)[C@H](CSSC[C@H](NC(=O)[C@H](CCCCN)NC(=O)[C@H](CCCNC(=N)N)NC1=O)C(=O)N[C@@H](CCSC)C(=O)N1CCC[C@H]1C(=O)N[C@@H](CC(=O)O)C(=O)N[C@@H](CC(N)=O)C(=O)N[C@@H](CC(=O)O)C(=O)N[C@@H](CCCCN)C(=O)N3)NC(=O)[C@H](C(C)C)NC(=O)[C@H](CC(C)C)NC(=O)[C@H](CC(N)=O)NC(=O)[C@@H]1CCCN1C(=O)[C@H](CCCNC(=N)N)NC2=O [compound 307] (H-DCLGFMRKCMPDNDKCCRPNLVCSRTHKWCKYVF-NH2; disulfide 2-17, 9-23, 16-30)
Use
  IC50: 100 nM

## CSCC[C@@H]1NC(=O)[C@H](Cc2ccccc2)NC(=O)CNC(=O)[C@H](CC(C)C)NC(=O)[C@@H](NC(=O)[C@@H](N)CC(=O)O)CSSC[C@@H]2NC(=O)[C@@H]3CSSC[C@@H](C(=O)N[C@@H](CCCCN)C(=O)N[C@@H](Cc4ccc(O)cc4)C(=O)N[C@H](C(=O)N[C@@H](Cc4ccccc4)C(N)=O)C(C)C)NC(=O)[C@H](Cc4c[nH]c5ccccc45)NC(=O)[C@H](CCCCN)NC(=O)[C@H](Cc4cnc[nH]4)NC(=O)[C@H]([C@@H](C)O)NC(=O)[C@H](CCCNC(=N)N)NC(=O)[C@H](CO)NC(=O)[C@H](CSSC[C@H](NC(=O)[C@H](CCCCN)NC(=O)[C@H](CCCNC(=N)N)NC1=O)C(=O)N[C@@H]([C@@H](C)O)C(=O)N1CCC[C@H]1C(=O)N[C@@H](CC(=O)O)C(=O)N[C@@H](CC(N)=O)C(=O)N[C@@H](CC(=O)O)C(=O)N[C@@H](CCCCN)C(=O)N3)NC(=O)[C@H](C(C)C)NC(=O)[C@H](CC(C)C)NC(=O)[C@H](CC(N)=O)NC(=O)[C@@H]1CCCN1C(=O)[C@H](CCCNC(=N)N)NC2=O [compound 309] (H-DCLGFMRKCTPDNDKCCRPNLVCSRTHKWCKYVF-NH2; disulfide 2-17, 9-23, 16-30)
Use
  IC50: 60 nM

## CC[C@H](C)[C@@H]1NC(=O)[C@@H]2CSSC[C@@H]3NC(=O)[C@H](C(C)C)NC(=O)[C@H](CC(C)C)NC(=O)[C@H](CC(N)=O)NC(=O)[C@@H]4CCCN4C(=O)[C@H](CCCNC(=N)N)NC(=O)[C@H](CSSC[C@H](NC(=O)[C@@H](N)CC(=O)O)C(=O)N[C@@H](CC(C)C)C(=O)NCC(=O)N[C@@H](Cc4ccccc4)C(=O)N[C@@H](Cc4ccccc4)C(=O)N[C@@H](CCCNC(=N)N)C(=O)N[C@@H](CCCCN)C(=O)N2)NC(=O)[C@H](CSSC[C@@H](C(=O)N[C@@H](CCCCN)C(=O)N[C@@H](Cc2cn(CCOCCOCCOCCOCCOCCOCCOCCOCCOCCOCCN)nn2)C(=O)N[C@H](C(=O)N[C@@H](Cc2cccc4ccccc24)C(N)=O)C(C)C)NC(=O)[C@H](Cc2c[nH]c4ccccc24)NC(=O)[C@H](CCCCN)NC(=O)[C@H](Cc2c[nH]cn2)NC(=O)[C@H]([C@@H](C)O)NC(=O)[C@H](CCCNC(=N)N)NC(=O)[C@H](CO)NC3=O)NC(=O)[C@H](CCCCN)NC(=O)[C@H](CC(=O)O)NC(=O)[C@H](CC(N)=O)NC(=O)[C@H](CC(=O)O)NC(=O)[C@@H]2CCCN2C1=O [compound 559]
Ratio of IWQ Use IC50 values
  Nav1.7/Nav1.3: 2.3

## CC[C@H](C)[C@@H]1NC(=O)[C@@H]2CSSC[C@@H]3NC(=O)[C@H](C(C)C)NC(=O)[C@H](CC(C)C)NC(=O)[C@H](CC(N)=O)NC(=O)[C@@H]4CCCN4C(=O)[C@H](CCCNC(=N)N)NC(=O)[C@H](CSSC[C@H](NC(=O)[C@@H](N)CC(=O)O)C(=O)N[C@@H](CC(C)C)C(=O)NCC(=O)N[C@@H](Cc4ccccc4)C(=O)N[C@@H](Cc4ccccc4)C(=O)N[C@@H](CCCNC(=N)N)C(=O)N[C@@H](CCCCN)C(=O)N2)NC(=O)[C@H](CSSC[C@@H](C(=O)N[C@@H](CCCCN)C(=O)N[C@@H](Cc2ccc(O)cc2)C(=O)N[C@H](C(=O)N[C@@H](Cc2ccccc2)C(=O)N[C@@H](Cc2cn(CCOCCOCCOCCOCCOCCOCCOCCOCCOCCOCCN)nn2)C(N)=O)C(C)C)NC(=O)[C@H](Cc2c[nH]c4ccccc24)NC(=O)[C@H](CCCCN)NC(=O)[C@H](Cc2c[nH]cn2)NC(=O)[C@H](CC(C)C)NC(=O)[C@H](CCCNC(=N)N)NC(=O)[C@H](CO)NC3=O)NC(=O)[C@H](CCCCN)NC(=O)[C@H](CC(=O)O)NC(=O)[C@H](CC(N)=O)NC(=O)[C@H](CC(=O)O)NC(=O)[C@@H]2CCCN2C1=O [compound 588]
Ratio of IWQ Use IC50 values
  Nav1.7/Nav1.3: 3.3

## CC[C@H](C)[C@@H]1NC(=O)[C@@H]2CSSC[C@@H]3NC(=O)[C@H](C(C)C)NC(=O)[C@H](CC(C)C)NC(=O)[C@H](CC(N)=O)NC(=O)[C@@H]4CCCN4C(=O)[C@H](CCCNC(=N)N)NC(=O)[C@H](CSSC[C@H](NC(=O)[C@@H](N)CC(=O)O)C(=O)N[C@@H](CC(C)C)C(=O)NCC(=O)N[C@H](C)C(=O)N[C@@H](CC(C)C)C(=O)N[C@@H](CCCNC(=N)N)C(=O)N[C@@H](CCCCN)C(=O)N2)NC(=O)[C@H](CSSC[C@@H](C(=O)N[C@@H](CCCCN)C(=O)N[C@@H](Cc2ccc(O)cc2)C(=O)N[C@H](C(=O)N[C@@H](Cc2ccccc2)C(N)=O)C(C)C)NC(=O)[C@H](Cc2c[nH]c4ccccc24)NC(=O)[C@H](CCCCN)NC(=O)[C@H](Cc2c[nH]cn2)NC(=O)[C@H]([C@@H](C)O)NC(=O)[C@H](CCCNC(=N)N)NC(=O)[C@H](CO)NC3=O)NC(=O)[C@H](CCCCN)NC(=O)[C@H](CC(=O)O)NC(=O)[C@H](CC(N)=O)NC(=O)[C@H](CC(=O)O)NC(=O)[C@@H]2CCCN2C1=O [compound 633]
[1]
  IC50: 11500 nM

## CC[C@H](C)[C@@H]1NC(=O)[C@@H]2CSSC[C@@H]3NC(=O)[C@H](C(C)C)NC(=O)[C@H](CC(C)C)NC(=O)[C@H](CC(N)=O)NC(=O)[C@@H]4CCCN4C(=O)[C@H](CCCNC(=N)N)NC(=O)[C@H](CSSC[C@H](NC(=O)[C@@H](N)CC(=O)O)C(=O)N[C@@H](CC(C)C)C(=O)NCC(=O)N[C@@H](Cc4ccc(OC)c(OC)c4)C(=O)N[C@@H](CCSC)C(=O)N[C@@H](CCCNC(=N)N)C(=O)N[C@@H](CCCCN)C(=O)N2)NC(=O)[C@H](CSSC[C@@H](C(=O)N[C@@H](CCCCN)C(=O)N[C@@H](Cc2ccc(O)cc2)C(=O)N[C@H](C(=O)N[C@@H](Cc2ccccc2)C(N)=O)C(C)C)NC(=O)[C@H](Cc2c[nH]c4ccccc24)NC(=O)[C@H](CCCCN)NC(=O)[C@H](Cc2c[nH]cn2)NC(=O)[C@H]([C@@H](C)O)NC(=O)[C@H](CCCNC(=N)N)NC(=O)[C@H](CO)NC3=O)NC(=O)[C@H](CCCCN)NC(=O)[C@H](CC(=O)O)NC(=O)[C@H](CC(N)=O)NC(=O)[C@H](CC(=O)O)NC(=O)[C@@H]2CCCN2C1=O [compound 652]
Ratio of IWQ Use values, Nav1.7 over Nav1.3
  Nav1.7/Nav1.3: 0.8

## CC[C@H](C)[C@@H]1NC(=O)[C@@H]2CSSC[C@@H]3NC(=O)[C@H](C(C)C)NC(=O)[C@H](CC(C)C)NC(=O)[C@H](CC(N)=O)NC(=O)[C@@H]4CCCN4C(=O)[C@H](CCCNC(=N)N)NC(=O)[C@H](CSSC[C@H](NC(=O)[C@@H](N)CC(=O)O)C(=O)N[C@@H](CC(C)C)C(=O)NCC(=O)N[C@@H](C)C(=O)N[C@@H](CC(C)C)C(=O)N[C@@H](CCCNC(=N)N)C(=O)N[C@@H](CCCCN)C(=O)N2)NC(=O)[C@H](CSSC[C@@H](C(=O)N[C@@H](CCCCN)C(=O)N[C@@H](Cc2ccc(O)cc2)C(=O)N[C@H](C(=O)N[C@@H](Cc2ccccc2)C(N)=O)C(C)C)NC(=O)[C@H](Cc2c[nH]c4ccccc24)NC(=O)[C@H](CCCCN)NC(=O)[C@H](Cc2cnc[nH]2)NC(=O)[C@H]([C@@H](C)O)NC(=O)[C@H](CCCNC(=N)N)NC(=O)[C@H](CO)NC3=O)NC(=O)[C@H](CCCCN)NC(=O)[C@H](CC(=O)O)NC(=O)[C@H](CC(N)=O)NC(=O)[C@H](CC(=O)O)NC(=O)[C@@H]2CCCN2C1=O [compound 696]
[1]
  IC50: 750 nM
